The results in this text go back to patent US20090163413A1, “DENTAL PRODUCTS COMPRISING BONE GROWTH ENHANCING PEPTIDE” (Acologix., Inc., priority 2000, published 2009).

For the experiment, the system named is calvaria from 4-days-old mice. Kind of experiment: Fetal mouse calvarial assay (mouse calvarial organ culture, histomorphometrical analysis of new bone area). In kind it is cell-based. Conditions: assay terminated at day 7, FGF-1 as positive control. Here is the method: FGF-1 was purchased from Peprotech Inc. (Rocky Hill, N.J.). RGD-1, 2, 3, 4, 5 and 6 (referred to here as D-00001, D-00002, D-00003, D-00004, D-00005 and D-00006) were provided by Dr. Nomizu (Hokkaido University, Japan).
Pregnant ICR mice were purchased from SLC Japan Co. Ltd. (Shizuoka, Japan).
Mouse calvarial organ culture was performed as described in Mundy G et al. Science 286: 1946-1949, 1999 and Traianedes K et al. Endocrinology 139: 3178-3184, 1998. The calvaria from 4-days-old mice were excised and cut in half along the sagittal suture. Each half of the calvaria was placed on a stainless steel grid in a 12-well tissue culture dish (Asahi Glass Techno Corp., Funabashi, Japan). Each well contained 1.5 ml of BGj medium (Sigma, St. Louis, Mo.) supplemented with 0.1% bovine serum albumin (Sigma) and each compound. FGF-1 was used as a positive control as described by Mundy et al. The medium was changed at day 1 and 4, and the assay was terminated at day 7.
Calvaria was fixed with 10% neutral-buffered formalin, decalcified with 4.13% EDTA and embedded in paraffin. […] sections were made and stained with hematoxylin and eosin. New bone area was measured using Image-Pro Plus (Media Cybernetics, Silver Spring, Md.).
The six peptides of Example 1 were tested for their ability to enhance bone growth with the tests being carried out as described above in Example 2.

No end group written: not given here.

In the case of “ERGDNDISPFSGDGQ (ERGDNDISPFSGDGQ-NH2) [D-00004]”, the “ability to enhance bone growth (new bone area)” value is “best results”.

Turning to TDLQERGDNDISPFSGDGQPFKD [D-00006], the “ability to enhance bone growth (new bone area)” value is recorded as “best results”.
